The term pIC50 denotes the negative decadic logarithm of the IC50, by convention in mol/L. Broadly, the viability, T/C is the result in the treated group divided by that in the control group, in per cent.

pIC50: −log10 of the molar value. Where “and” joins values, the source holds several entries; their conditions need not be identical. Equal values may be shown once. A value given as a limit tells only on which side of the number the result lay.

The record followed here is PubChem BioAssay AID1963832 (Molecular Pharmacology Branch, DTP, NCI, 2024).

The subject of the experiment is 885724-159-R-J1-PDC complex spheroid viability. Briefly: Anticancer human tumor 885724-159-R-J1-PDC patient-derived pancreatic adenocarcinoma cell line growth inhibition [POLQ]. The settings on record: for viability, T/C: stronger effect = lower value. On the procedure: Multicellular complex tumor spheroid response to Polymerase (POL) inhibitors (novobiocin, ART-558, RP6685) in combination with a variety of drugs and investigational agents in selected tumor cell lines
The POL inhibitors (novobiocin, ART-558, and RP6685) were evaluated both individually and in combination with standard of care and investigational anticancer small molecules within a complex spheroid model of solid tumors. . Complex spheroids include a stromal component modeled by human endothelial cells (HUVEC) and fibroblasts modeled by human mesenchymal stem cells (MSCs). The concentration ranges selected for each drug and investigational agent were based upon clinically achievable concentrations if the clinical Cmax of the agent was known.
Compounds. The drugs and investigational agents: novobiocin (NSC847541), ART-558 (NSC835418), RP-6685 (NSC848927), peposertib (NSC802822), ceralasertib (NSC780249), elimusertib (NSC800525), camonsertib (NSC841442), AZD-1390 (NSC803789), olaparib (NSC753686), talazoparib (NSC767125), rucaparib (NSC756644), sotorasib (NSC818433), MRTX-1133 (NSC836407), SN-38 (NSC673596), topotecan (NSC609699), epotoside (NSC141540), doxorubicin (NSC123127), gemcitabine (NSC613327), 5-fluorouracil (NSC19893), paclitaxel (NSC125973), vemurafenib (NSC761431), MSA-2 (NSC828583), SN-011 (NSC837082), adavosertib (NSC754352), prexasertib (NSC758257), carboplatin (NSC241240) and oxaliplatin (NSC266046), were obtained from the National Cancer Institute (NCI) Developmental Therapeutics Program Chemical Repository (21). The FDA-approved anticancer drug set is available from the Developmental Therapeutics Program at https://dtp.cancer.gov/organization/dscb/obtaining/. […] The stock solutions were prepared in dimethyl sulfoxide (DMSO, Sigma-Aldrich, St. Louis, MO, cat. D2650), except for the platinum compounds which were prepared in saline (Quality Biological, Gaithersburg, MD, cat. 114-055-101), at 800-fold the tested concentration and stored at -70 degrees C prior to their use. All drugs and investigational agents were tested over a range starting from a high concentration at or near the clinical Cmax and decreasing in half-log increments. If the clinical Cmax for an agent had not been determined, the highest concentration tested was 10 microM, except for SN-38, which was tested at a high concentration of 1 microM.
Cell Culture. All cells were maintained in an incubator at 37 degrees C and 5% CO2 with 95% humidity. The PDC lines were cultured according to standard operating procedures established by the NCI PDMR (https://pdmr.cancer.gov). Table 3 of the manuscript, lists the cell lines along with the number of the three cell types plated to form the mct-spheroids and media for tumor cell growth. After thawing, all PDC lines, except 997537-175-T-J1-PDC and 415267-285-R-J2-PDC, were cultured in Matrigel-coated flasks prepared with a working solution of 1X Ham's F-12 nutrient mix, without supplementation (Thermo Fisher Scientific, cat. 11765054), 100 U/mL penicillin-streptomycin (Thermo Fisher Scientific, cat. 15140122), and 2.5% Matrigel (Corning Inc., Corning, NY, cat. 354248) for the first three passages. The two PDC lines 997537-175-T-J1-PDC and 415267-285-R-J2-PDC were cultured on uncoated flasks. The 857933-349-R-J2-PDC line was cultured in 6C/Colon 1B media containing advanced DMEM/F-12 (Thermo Fisher Scientific, cat. 12634028), 10 mM HEPES (Thermo Fisher Scientific, cat. 15630080), 1X GlutaMAX supplement (Thermo Fisher Scientific, cat. 35050061), 0.1 mg/mL primocin (InvivoGen, San Diego, CA, cat. ant-pm-2), 10% defined fetal bovine serum, heat inactivated (HyClone Laboratories Inc., Logan, UT, cat. SH30070.03HI), 50% L-WRN conditioned media (ATCC, cat. CRL-3276), 1.25 mM N-Acetyl-L-cysteine (Sigma-Aldrich, cat. A9165), 10 mM nicotinamide (Sigma-Aldrich, cat. N0636), 1X B-27 supplement (Thermo Fisher Scientific, cat. 17504044), 1X N-2 supplement (Thermo Fisher Scientific, cat. […]

Setting [1] is: curve of first compound, second compound 0.0316 µM.
Setting [2] is: curve of first compound, second compound 0.1 µM.
[3] abbreviates: curve of first compound, second compound 0.316 µM.
[4] abbreviates: curve of first compound, second compound 1 µM.
Setting [5] is: curve of first compound, second compound 3.16 µM.
[6] abbreviates: curve of first compound, second compound 10 µM.
Setting [7] is: second compound 0.0316 µM, first compound 0.0316 µM.
The mark [8] stands for this setting: second compound 0.0316 µM, first compound 0.1 µM.
Setting [9] is: second compound 0.0316 µM, first compound 0.316 µM.
Where [10] appears, read: second compound 0.0316 µM, first compound 1 µM.
Where [11] appears, read: second compound 0.1 µM, first compound 0.0316 µM.
Setting [12] is: second compound 0.1 µM, first compound 0.1 µM.
Where [13] appears, read: second compound 0.1 µM, first compound 0.316 µM.
[14] abbreviates: second compound 0.1 µM, first compound 1 µM.
[15] abbreviates: second compound 0.316 µM, first compound 0.0316 µM.
[16] abbreviates: second compound 0.316 µM, first compound 0.1 µM.
Where [17] appears, read: second compound 0.316 µM, first compound 0.316 µM.
[18] abbreviates: second compound 0.316 µM, first compound 1 µM.
[19] abbreviates: second compound 1 µM, first compound 0.0316 µM.
Where [20] appears, read: second compound 1 µM, first compound 0.1 µM.
Setting [21] is: second compound 1 µM, first compound 0.316 µM.
Where [22] appears, read: second compound 1 µM, first compound 1 µM.
[23] abbreviates: second compound 3.16 µM, first compound 0.0316 µM.
Setting [24] is: second compound 3.16 µM, first compound 0.1 µM.
The mark [25] stands for this setting: second compound 3.16 µM, first compound 0.316 µM.
[26] abbreviates: second compound 3.16 µM, first compound 1 µM.
Where [27] appears, read: second compound 10 µM, first compound 0.0316 µM.
[28] abbreviates: second compound 10 µM, first compound 0.1 µM.
Setting [29] is: second compound 10 µM, first compound 0.316 µM.
[30] abbreviates: second compound 10 µM, first compound 1 µM.
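Further: spheroids exposed to compounds for 7 days.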

`CC(C)n1c(=O)n(C)c2cnc3cc(F)c(-c4ccc(OCCCN5CCCCC5)nc4)cc3c21` + Nc1ccc(C#CCN(C(=O)Cc2ncc(C(F)(F)F)cc2C(F)(F)F)c2ccc(F)cc2)nn1: the pIC50 is, setting by setting: under setting [1], < 5.00; under setting [2], < 5.00; under setting [3], < 5.00; under setting [4], < 5.00; under setting [5], < 5.00; under setting [6], < 5.00. Besides, the viability, T/C is, setting by setting: under setting [7], 103%; under setting [8], 103%; under setting [9], 101%; under setting [10], 98.2%; (second compound 0.0316 µM, first compound 3.16 µM) 85.3%; (second compound 0.0316 µM, first compound 10 µM) 81.5%. In addition, the viability, T/C by setting is: under setting [11], 104%; under setting [12], 94.9%; under setting [13], 98%; under setting [14], 98.9%; (second compound 0.1 µM, first compound 3.16 µM) 98.9%; (second compound 0.1 µM, first compound 10 µM) 93.7%. Further, the viability, T/C by setting is: under setting [15], 104%; under setting [16], 102%; under setting [17], 96.3%; under setting [18], 94.5%; (second compound 0.316 µM, first compound 3.16 µM) 94%; (second compound 0.316 µM, first compound 10 µM) 87.7%. Besides, the viability, T/C is, setting by setting: under setting [19], 111%; under setting [20], 104%; under setting [21], 96.8%; under setting [22], 97.8%; (second compound 1 µM, first compound 3.16 µM) 97%; (second compound 1 µM, first compound 10 µM) 84.9%. For the same compound, the viability, T/C was 98.4% under setting [23]; 104% under setting [24]; 98.1% under setting [25]; 101% under setting [26]; 90% (second compound 3.16 µM, first compound 3.16 µM); 92.1% (second compound 3.16 µM, first compound 10 µM). Besides, the viability, T/C by setting is: under setting [27], 106%; under setting [28], 97.4%; under setting [29], 108%; under setting [30], 103%; (second compound 10 µM, first compound 3.16 µM) 90.7%; (second compound 10 µM, first compound 10 µM) 73.7%.

For `COc1cccc(OCCCN)c1-c1cc(Nc2cnc(C#N)cn2)n[nH]1`, the viability, T/C is 62.5% and 76.4% and 69.2% (compound 0.00316 µM); 46.4% and 49.5% and 54.3% (compound 0.01 µM); 45.3% and 44.2% and 49.7% (compound 0.0316 µM); 42.2% and 45.4% and 51.1% (compound 0.1 µM); 44.9% and 42.6% and 47% (compound 0.316 µM); 44.4% and 47.1% and 48% (compound 1 µM). The pIC50 (curve of compound) was 8.11 and 8.01 and 7.49.

Turning to `C=CC(=O)N1CCN(c2nc(=O)n(-c3c(C)ccnc3C(C)C)c3nc(-c4c(O)cccc4F)c(F)cc23)C(C)C1` (configuration not stated), the viability, T/C is 101% and 99.6% and 109% (compound 0.0316 µM); 87.9% and 97.3% and 91.8% (compound 0.1 µM); 95.6% and 105% and 106% (compound 0.316 µM); 98.9% and 116% and 108% (compound 1 µM); 105% and 94.4% and 114% (compound 3.16 µM); 90.5% and 92.3% and 86.1% (compound 10 µM). For the same compound, for the setting “curve of compound”, the pIC50 is < 5.00.

On to `Nc1ccn(C2OC(CO)C(O)C2(F)F)c(=O)n1` (configuration not stated), for which the viability, T/C reads like this: (compound 0.0316 µM) 62.8% and 66.8% and 60.1%; (compound 0.1 µM) 51.6% and 57% and 53.9%; (compound 0.316 µM) 50.6% and 51% and 51.5%; (compound 1 µM) 51.7% and 53% (2×); (compound 3.16 µM) 51.6% and 53.4% and 54.6%; (compound 10 µM) 46% and 42.3% and 39.7%. The pIC50 (curve of compound) is 6.25 and 5.94 and 5.36.

Turning to `C=CCn1c(=O)c2cnc(Nc3ccc(N4CCN(C)CC4)cc3)nc2n1-c1cccc(C(C)(C)O)n1` + Nc1ccc(C#CCN(C(=O)Cc2ncc(C(F)(F)F)cc2C(F)(F)F)c2ccc(F)cc2)nn1, the pIC50 by setting is: under setting [1], 6.12; under setting [2], 6.18; under setting [3], 6.20; under setting [4], < 6.00; under setting [5], 6.11; under setting [6], 6.06. Moreover, the viability, T/C (second compound 0.0316 µM, first compound 0.00316 µM) is 96.6%; the viability, T/C (second compound 0.0316 µM, first compound 0.01 µM) was 96%; the viability, T/C under setting [7] was 79.6%; the viability, T/C under setting [8] is 67.8%; the viability, T/C under setting [9] is 57.4%; the viability, T/C under setting [10] was 47.3%. Moreover, the viability, T/C by setting is: (second compound 0.1 µM, first compound 0.00316 µM) 106%; (second compound 0.1 µM, first compound 0.01 µM) 95.1%; under setting [11], 86.5%; under setting [12], 73.8%; under setting [13], 57.1%; under setting [14], 45.8%. For the same compound, the viability, T/C was 94.9% (second compound 0.316 µM, first compound 0.00316 µM); 92.2% (second compound 0.316 µM, first compound 0.01 µM); 89.8% under setting [15]; 73.9% under setting [16]; 56.2% under setting [17]; 46% under setting [18]. For the same compound, the viability, T/C reads like this: (second compound 1 µM, first compound 0.00316 µM) 102%; (second compound 1 µM, first compound 0.01 µM) 92.6%; under setting [19], 91.3%; under setting [20], 76%; under setting [21], 58.1%; under setting [22], 53.3%. For the same compound, the viability, T/C is 96.3% (second compound 3.16 µM, first compound 0.00316 µM); 101% (second compound 3.16 µM, first compound 0.01 µM); 88.2% under setting [23]; 73.9% under setting [24]; 56% under setting [25]; 48.3% under setting [26]. Also, the viability, T/C runs as follows: (second compound 10 µM, first compound 0.00316 µM) 116%; (second compound 10 µM, first compound 0.01 µM) 98.2%; under setting [27], 98.5%; under setting [28], 81.4%; under setting [29], 63.7%; under setting [30], 48.2%.

Take `COc1cc2cc(C(=O)CCC(=O)O)sc2cc1OC`: the viability, T/C by setting is: (compound 0.0316 µM) 102% and 90.8% and 94.2%; (compound 0.1 µM) 96.9% and 97.3% and 92%; (compound 0.316 µM) 98.9% and 97.8% and 108%; (compound 1 µM) 96.4% and 105% and 95.9%; (compound 3.16 µM) 103% and 99% and 107%; (compound 10 µM) 94.9% and 89% and 90.3%. Further, the pIC50 (curve of compound) is < 5.00.
